Reference: patent US20220280578A1, “METHOD FOR TREATING ALZHEIMER'S DISEASE BY REGULATING INTESTINAL MICROORGANISMS” (SHANGHAI GREEN VALLEY PHARMACEUTICAL CO., LTD., priority 2019, published 2022)
“Also recorded” adds a separate entry of the source.

Tests used:
WT mice (C57) = test: Intraperitoneal injection of phenylalanine and isoleucine, blood Th1 cells; format: in vivo, mouse; settings: intraperitoneal injection 50 mg/kg for 4 days
naive CD4+ T cells = test: In vitro differentiation and proliferation induced by phenylalanine and isoleucine; format: cell-based, mouse; settings: amino acid added directly to naive CD4+ T cell culture; for Th1 cell proliferation: CellTrace
Protocol: In Vitro differentiation and proliferation induced by phenylalanine and isoleucine. Naive CD4^+ T cells were separated from the splenocytes of 8-month-old C57BL/6 female mice using the Naive CD4^+ T cell Isolation Kit (Stem Cell, #19765), and the cells were stained with CellTrace (Thermo Fisher, #C34557). A total of 1×10^5 cells/well in 0.2 mL of RPMI-1640 medium were plated in 96-well plates, and the culture medium was supplemented with cytokines or blocking antibodies. Th0: 10 ng/mL mIL-2; Th1:10 ng/mL mIL-2, 5000 ng/mL 11B11. Phenylalanine (final concentration, 2 mmol/L), isoleucine (final concentration, 2 mmol/L) and OM1 (final concentration, 100 μg/mL) were added into the indicated wells, respectively. After incubation at 37° C. in 5% CO2 for 5 days, cells were acquired on a BD Fortessa cytometer, and data were analyzed using FlowJo software.

SLC7A5 = target: T1, SLC7A5 (Mus musculus, UniProt Q9Z127); test: Uptake of 13C-labelled phenylalanine by CD4+ T cells; format: cell-based; settings: 0.5 h incubation
T1 construct: endogenous in cells; host or cells: Primary naive CD4+ T cells from splenocytes of C57BL/6 mice, used as Th0 cells and IL-12-induced Th1 cells
T1 sequence (Q9Z127 whole entry): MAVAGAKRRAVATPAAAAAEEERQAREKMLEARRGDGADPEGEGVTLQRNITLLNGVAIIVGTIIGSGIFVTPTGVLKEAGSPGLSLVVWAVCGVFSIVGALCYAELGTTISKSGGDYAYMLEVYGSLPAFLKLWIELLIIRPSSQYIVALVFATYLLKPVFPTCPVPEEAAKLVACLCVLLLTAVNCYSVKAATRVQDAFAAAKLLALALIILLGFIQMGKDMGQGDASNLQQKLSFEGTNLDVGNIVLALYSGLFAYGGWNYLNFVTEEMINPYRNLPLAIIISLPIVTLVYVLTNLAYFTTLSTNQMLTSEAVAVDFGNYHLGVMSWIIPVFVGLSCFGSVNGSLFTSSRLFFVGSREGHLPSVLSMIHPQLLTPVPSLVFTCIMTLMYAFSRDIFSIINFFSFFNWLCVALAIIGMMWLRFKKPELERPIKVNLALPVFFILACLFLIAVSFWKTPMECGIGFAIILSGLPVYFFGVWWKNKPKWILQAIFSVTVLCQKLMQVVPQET
T1 sequence (P10852 whole entry partner): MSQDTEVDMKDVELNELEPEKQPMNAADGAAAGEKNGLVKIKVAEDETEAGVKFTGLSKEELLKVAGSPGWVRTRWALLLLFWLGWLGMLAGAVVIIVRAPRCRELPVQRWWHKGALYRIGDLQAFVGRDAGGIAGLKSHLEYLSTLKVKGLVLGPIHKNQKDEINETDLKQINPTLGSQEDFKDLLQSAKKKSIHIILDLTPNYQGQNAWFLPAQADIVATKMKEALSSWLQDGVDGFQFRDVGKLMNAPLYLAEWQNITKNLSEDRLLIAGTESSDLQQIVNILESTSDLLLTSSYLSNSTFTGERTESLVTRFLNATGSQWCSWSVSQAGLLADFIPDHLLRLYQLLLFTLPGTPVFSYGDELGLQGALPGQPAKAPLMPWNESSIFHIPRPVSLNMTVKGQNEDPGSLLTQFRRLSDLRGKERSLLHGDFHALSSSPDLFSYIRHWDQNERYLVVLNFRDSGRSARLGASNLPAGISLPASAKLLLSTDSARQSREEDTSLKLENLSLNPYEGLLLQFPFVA
Protocol: Uptake of phenylalanine. Naive CD4^+ T cells were separated from the is splenocytes of 8-month-old C57BL/6 female mice using the Naive CD4^+ T cell Isolation Kit (Stem Cell, Cat No. 19765) and were induced to Th1 differentiation by 20 ng/mL IL-12. After 3 days, a total of 5×10^5 cells/well Th1 cells and Th0 cells in 0.5 mL of RPMI-1640 medium were plated into 48-well plates. ^13C-labelled phenylalanine and 5 mM amino transporter inhibitor BCH were added into indicated wells. After 0.5 h, cells were collected and washed twice with ice-cold D-PBS. 50 μL deionized water was added and cells were lysed through freezing and thawing twice at −80° C. The cell lysate was centrifuged at 12000×g for 10 min and ^13C-labelled phenylalanine in the supernatant was analyzed by Mass spectrometry.

5XFAD mice = test: JPH 203 in 5XFAD mice, Th1 cells in the brain by flow cytometry; format: in vivo, mouse; settings: 6-month-old 5XFAD mice, 50 mg/kg intraperitoneal every day for one month, vs vehicle
Text: Flow cytometry sample preparation and analysis. Mice were anesthetized, blood samples were collected into EDTA-containing tubes, and red blood cells were removed using 1×red blood lysis buffer. Before tissue is collection, the brains were perfused with ice-cold PBS to avoid sampling the circulating blood immune cells, and the brains were removed, chopped into pieces and dissected according to the introduction of the Adult Brain Dissociation Kit (Miltenyi, Cat No. 130-107-677) using the gentleMACS dissociator (Miltenyi Biotec). The brain homogenate was filtered through a 70-μm cell strainer and centrifuged at 300×g for 5 min at 4° C. […] All samples were counted and adjusted to a density of 2-3 ×10^6/100 μL, labeled with a Live/Dead kit for 30 min, and then centrifuged at 500×g for 3 min at 4° C. […] Relevant negative control, Fluorescence Minus One (FMO) control and each fluorescence compensation sample were used to adjust fluorescence compensation and identify the populations of interest. Cells were acquired on a BD Aria III cytometer, and data were analyzed using FlowJo software.
Amino acids could be taken by immune cells through specific transporters. […] One month after the administration, the mice were euthanized, and the proportion of pro-inflammatory Th 1 cells in the brains of the mice in the control group and the JPH 203 treatment group was analyzed by flow cytometry. […]

Row | uptake of 13C-labelled phenylalanine by CD4+ T cells (SLC7A5) | SMILES | Th1 cell count in the blood (WT mice (C57)) | Th0 cell differentiation into Th1 cells (naive CD4+ T cells) | Th1 cell proliferation (naive CD4+ T cells) | proportion of pro-inflammatory Th1 cells in the mouse brain (5XFAD mice; 50 mg/kg) | proportion of pro-inflammatory Th1 cells in the mouse brain (5XFAD mice; listed as JPH 203, 50 mg/kg)
1 |  | CC[C@H](C)[C@H](N)C(=O)O [isoleucine] | increased significantly | increased | increased |  | 
2 |  | N[C@@H](Cc1ccccc1)C(=O)O [phenylalanine] | increased significantly | increased | increased |  | 
3 | blocked | Nc1cc(COc2c(Cl)cc(C[C@H](N)C(=O)O)cc2Cl)c2oc(-c3ccccc3)nc2c1 [JPH203] |  |  |  | effectively inhibits; also recorded: significantly downregulated | significantly reduces
